Experimental data as given in patent US20080279907A1, “Antimicrobial medical devices and methods for making and using same” (Ash Access Technology, Inc., priority 2007, published 2008).

Tests used:
[1] = Perfusion of parabens and methylene blue through polycarbonate membrane in perfusion chamber (HPLC of lower chamber); type: physicochemical
Method: An experiment was performed to determine a method for perfusing methylene blue, methyl paraben, and propyl paraben through a polycarbonate membrane with causing only minimal changes to the strength and elasticity of the membrane. In FIG. 12, there is illustrated a perfusion chamber system 50 used during the experiment. System 50 includes an upper chamber 51 and a lower chamber 52 separated by a polycarbonate membrane 53 having a thickness of 0.60 mm. The upper and lower chambers 51, 52 are generally structured to hold 10.5 cm^3 or 10.5 ml of fluid. The upper chamber 51 was connected to a peristaltic pump (not shown) and the lower chamber 52 was filled with distilled water. First and second solutions, respectively including the parabens and the methylene blue, were prepared in accordance with the method set forth in EXAMPLE 6 above. As best seen in Tables 6 and 7 below, the solutions were connected to the pump and passed through the first chamber 51 at a constant rate at 37° C. over various lengths of time.
Table 6 includes data obtained from HPLC analysis comparing the methyl paraben, propyl paraben, and methylene blue concentrations in the lower chamber 52. The parameters for the methyl and propyl paraben and methylene blue treatments are indicated in the left hand columns.

[2] = Desorption of parabens from paraben impregnated polycarbonate catheter pieces in 0.24 M sodium citrate pH 6.2 (HPLC); type: physicochemical
Method: One inch polycarbonate catheter pieces including a surface area of about 4.64 cm^2 were impregnated with methyl paraben and propyl paraben. A solution of 100% 1,2-propanediol was prepared with 9% methyl paraben and 2% propyl paraben. Pairs of the one inch catheter pieces were placed into three 25 ml flasks including 10 ml of the 1,2-propanediol and paraben solution. The flasks including the catheter pieces were placed on a shaker at 220 rpm and 27° C. for two, four, or nine hour time periods. At the end of each time period, the catheter pieces were removed, rinsed with distilled water, and dried.
Desorption analysis of the paraben impregnated catheter pieces was performed in 0.24 M sodium citrate with a pH of 6.2. The total amount of either methyl paraben or propyl paraben released from the catheter pieces was calculated using HPLC analysis performed with a Waters Alliance 2690 including a 996 Photodiode Array Detector. Each calculation used a solution of HPLC grade H2O, methanol (MeOH), and acetonitrile (CAN) which were pre-filtered through a Millipore 0.45 μm nylon filter before use. Trifluoracetic acid (TFA) was added to H2O and acetonitrile (ACN) to 0.1%. A Waters Symmetry column (C8 3.9×150 mm, 5 μm) was applied with a Waters guard column (Waters, Sentry Guard column, Nova-Pak C18, 60A, 4 μm 3.9×20 mm).
A gradient of 67% H2O/33% ACN was used for 6.5 min, ramped to 45 %/55% from 6.5 to 7.0 min, and kept at 45%/55% until 15.0 min, at 15.0 min the concentration reverted to 67%/33%, and the system was run until 18 min. Injection volume for each sample was 10 μl and samples and column were run at ambient temperature.
Table 2 includes the graphical data represented in FIG. 8 and associated with the desorption of propyl paraben from the paraben impregnated catheter pieces prepared as discussed above. Again, the samples were impregnated only with parabens and desorbed in 10 ml 0.24 M Na-citrate, pH 6.2 over time.

[3] = lower chamber, 20% PG/80% DI H2O (0.9% MP, 0.2% PP) ~9 hrs at 37 C., then MB ~10 days

## COC(=O)c1ccc(O)cc1 [MP, methyl paraben]
[1]; 0.60 mm polycarbonate membrane, 37° C.
  time until perfused through the membrane and detected in the lower chamber: within two hours
[1]; lower chamber sample
  ratio MP/PP from this sample: 4.7
[1]; [3]
  MP Conc: 0.047 mg/mL
  Total mg MP in 10.5 mL lower chamber: 0.4935 mg
[2]; nearly 3 months, FIGS. 8 and 9
  desorption by the end of the study: negligible desorption
[2]; paraben impregnated catheter pieces, 0.24 M Na-citrate pH 6.2
  period of significant release: 10 days
[2]; treatment 2 hrs (100% PG, 9% MP, 2% PP), time 1 hour
  Total MP released (mg)/1″ catheter: 0.361 mg/1″ catheter
[2]; treatment 2 hrs (100% PG, 9% MP, 2% PP), time 3 hours
  Total MP released (mg)/1″ catheter: 0.577 mg/1″ catheter
[2]; treatment 2 hrs (100% PG, 9% MP, 2% PP), time 7 hours
  Total MP released (mg)/1″ catheter: 0.84 mg/1″ catheter
[2]; treatment 2 hrs (100% PG, 9% MP, 2% PP), time 24 hours
  Total MP released (mg)/1″ catheter: 1.17 mg/1″ catheter
[2]; treatment 2 hrs (100% PG, 9% MP, 2% PP), time 4 days
  Total MP released (mg)/1″ catheter: 1.519 mg/1″ catheter
[2]; treatment 2 hrs (100% PG, 9% MP, 2% PP), time 5 days
  Total MP released (mg)/1″ catheter: 1.685 mg/1″ catheter
[2]; treatment 2 hrs (100% PG, 9% MP, 2% PP), time 6 days
  Total MP released (mg)/1″ catheter: 1.826 mg/1″ catheter
[2]; treatment 2 hrs (100% PG, 9% MP, 2% PP), time 8 days
  Total MP released (mg)/1″ catheter: 2.002 mg/1″ catheter
[2]; treatment 2 hrs (100% PG, 9% MP, 2% PP), time 11 days
  Total MP released (mg)/1″ catheter: 2.129 mg/1″ catheter
[2]; treatment 2 hrs (100% PG, 9% MP, 2% PP), time 13 days
  Total MP released (mg)/1″ catheter: 2.208 mg/1″ catheter
[2]; treatment 2 hrs (100% PG, 9% MP, 2% PP), time 15 days
  Total MP released (mg)/1″ catheter: 2.281 mg/1″ catheter
[2]; treatment 2 hrs (100% PG, 9% MP, 2% PP), time 18 days
  Total MP released (mg)/1″ catheter: 2.325 mg/1″ catheter
[2]; treatment 2 hrs (100% PG, 9% MP, 2% PP), time 22 days
  Total MP released (mg)/1″ catheter: 2.356 mg/1″ catheter
[2]; treatment 2 hrs (100% PG, 9% MP, 2% PP), time 29 days
  Total MP released (mg)/1″ catheter: 2.377 mg/1″ catheter
[2]; treatment 2 hrs (100% PG, 9% MP, 2% PP), time 36 days
  Total MP released (mg)/1″ catheter: 2.392 mg/1″ catheter
[2]; treatment 2 hrs (100% PG, 9% MP, 2% PP), time 50 days
  Total MP released (mg)/1″ catheter: 2.402 mg/1″ catheter
[2]; treatment 2 hrs (100% PG, 9% MP, 2% PP), time 67 days
  Total MP released (mg)/1″ catheter: 2.409 mg/1″ catheter
[2]; treatment 2 hrs (100% PG, 9% MP, 2% PP), time 81 days
  Total MP released (mg)/1″ catheter: 2.413 mg/1″ catheter
[2]; treatment 4 hrs (100% PG, 9% MP, 2% PP), time 1 hour
  Total MP released (mg)/1″ catheter: 0.603 mg/1″ catheter
[2]; treatment 4 hrs (100% PG, 9% MP, 2% PP), time 3 hours
  Total MP released (mg)/1″ catheter: 1.04 mg/1″ catheter
[2]; treatment 4 hrs (100% PG, 9% MP, 2% PP), time 7 hours
  Total MP released (mg)/1″ catheter: 1.472 mg/1″ catheter
[2]; treatment 4 hrs (100% PG, 9% MP, 2% PP), time 24 hours
  Total MP released (mg)/1″ catheter: 2.223 mg/1″ catheter
[2]; treatment 4 hrs (100% PG, 9% MP, 2% PP), time 4 days
  Total MP released (mg)/1″ catheter: 2.774 mg/1″ catheter
[2]; treatment 4 hrs (100% PG, 9% MP, 2% PP), time 5 days
  Total MP released (mg)/1″ catheter: 3.01 mg/1″ catheter
[2]; treatment 4 hrs (100% PG, 9% MP, 2% PP), time 6 days
  Total MP released (mg)/1″ catheter: 3.146 mg/1″ catheter
[2]; treatment 4 hrs (100% PG, 9% MP, 2% PP), time 8 days
  Total MP released (mg)/1″ catheter: 3.324 mg/1″ catheter
[2]; treatment 4 hrs (100% PG, 9% MP, 2% PP), time 11 days
  Total MP released (mg)/1″ catheter: 3.449 mg/1″ catheter
[2]; treatment 4 hrs (100% PG, 9% MP, 2% PP), time 13 days
  Total MP released (mg)/1″ catheter: 3.536 mg/1″ catheter
[2]; treatment 4 hrs (100% PG, 9% MP, 2% PP), time 15 days
  Total MP released (mg)/1″ catheter: 3.597 mg/1″ catheter
[2]; treatment 4 hrs (100% PG, 9% MP, 2% PP), time 18 days
  Total MP released (mg)/1″ catheter: 3.646 mg/1″ catheter
[2]; treatment 4 hrs (100% PG, 9% MP, 2% PP), time 22 days
  Total MP released (mg)/1″ catheter: 3.676 mg/1″ catheter
[2]; treatment 4 hrs (100% PG, 9% MP, 2% PP), time 29 days
  Total MP released (mg)/1″ catheter: 3.701 mg/1″ catheter
[2]; treatment 4 hrs (100% PG, 9% MP, 2% PP), time 36 days
  Total MP released (mg)/1″ catheter: 3.722 mg/1″ catheter
[2]; treatment 4 hrs (100% PG, 9% MP, 2% PP), time 50 days
  Total MP released (mg)/1″ catheter: 3.74 mg/1″ catheter
[2]; treatment 4 hrs (100% PG, 9% MP, 2% PP), time 67 days
  Total MP released (mg)/1″ catheter: 3.749 mg/1″ catheter
[2]; treatment 4 hrs (100% PG, 9% MP, 2% PP), time 81 days
  Total MP released (mg)/1″ catheter: 3.755 mg/1″ catheter
[2]; treatment 9 hrs (100% PG, 9% MP, 2% PP), time 1 hour
  Total MP released (mg)/1″ catheter: 0.67 mg/1″ catheter
[2]; treatment 9 hrs (100% PG, 9% MP, 2% PP), time 3 hours
  Total MP released (mg)/1″ catheter: 1.18 mg/1″ catheter
[2]; treatment 9 hrs (100% PG, 9% MP, 2% PP), time 7 hours
  Total MP released (mg)/1″ catheter: 1.504 mg/1″ catheter
[2]; treatment 9 hrs (100% PG, 9% MP, 2% PP), time 24 hours
  Total MP released (mg)/1″ catheter: 1.993 mg/1″ catheter
[2]; treatment 9 hrs (100% PG, 9% MP, 2% PP), time 4 days
  Total MP released (mg)/1″ catheter: 2.725 mg/1″ catheter
[2]; treatment 9 hrs (100% PG, 9% MP, 2% PP), time 5 days
  Total MP released (mg)/1″ catheter: 3.082 mg/1″ catheter
[2]; treatment 9 hrs (100% PG, 9% MP, 2% PP), time 6 days
  Total MP released (mg)/1″ catheter: 3.27 mg/1″ catheter
[2]; treatment 9 hrs (100% PG, 9% MP, 2% PP), time 8 days
  Total MP released (mg)/1″ catheter: 3.456 mg/1″ catheter
[2]; treatment 9 hrs (100% PG, 9% MP, 2% PP), time 11 days
  Total MP released (mg)/1″ catheter: 3.593 mg/1″ catheter
[2]; treatment 9 hrs (100% PG, 9% MP, 2% PP), time 13 days
  Total MP released (mg)/1″ catheter: 3.676 mg/1″ catheter
[2]; treatment 9 hrs (100% PG, 9% MP, 2% PP), time 15 days
  Total MP released (mg)/1″ catheter: 3.734 mg/1″ catheter
[2]; treatment 9 hrs (100% PG, 9% MP, 2% PP), time 18 days
  Total MP released (mg)/1″ catheter: 3.788 mg/1″ catheter
[2]; treatment 9 hrs (100% PG, 9% MP, 2% PP), time 22 days
  Total MP released (mg)/1″ catheter: 3.832 mg/1″ catheter
[2]; treatment 9 hrs (100% PG, 9% MP, 2% PP), time 29 days
  Total MP released (mg)/1″ catheter: 3.872 mg/1″ catheter
[2]; treatment 9 hrs (100% PG, 9% MP, 2% PP), time 36 days
  Total MP released (mg)/1″ catheter: 3.912 mg/1″ catheter
[2]; treatment 9 hrs (100% PG, 9% MP, 2% PP), time 50 days
  Total MP released (mg)/1″ catheter: 3.944 mg/1″ catheter
[2]; treatment 9 hrs (100% PG, 9% MP, 2% PP), time 67 days
  Total MP released (mg)/1″ catheter: 3.958 mg/1″ catheter
[2]; treatment 9 hrs (100% PG, 9% MP, 2% PP), time 81 days
  Total MP released (mg)/1″ catheter: 3.967 mg/1″ catheter
